Test results taken from patent publication US20090305225A1, “Inhibition of Creatine Uptake to Promote Weight Loss” (priority 2005, published 2009).

Tested on: 11G2L cDNA (creatine transporter mRNA)
Assay: Differential display of hypothalamic mRNA (band 11G2L)
Assay type: in vivo, rat
Conditions: icv CoPP 0.4 umol/kg, 48 hours, absent in vehicle fed and fasted rats
Method: RNA Extraction from Rat Hypothalamus. Adult male Sprague-Dawley rats were randomly separated into three groups. Group 1 (control) was injected icv with saline and fed ad lib. Group 2 (fasted) was injected icv with saline and allowed ad lib access to water only; Group 3 (CoPP) was injected icv with CoPP 0.4 umol/kg body weight and fed ad lib. After 24 and 48 hours, weights were measured. Only those rats with robust weight loss of at least 10% of initial body weight 48 hours after treatment were chosen for the CoPP group. Eleven rats from each group were then killed by decapitation, using procedures outlined in the Animal Welfare Act and as approved by the University of Vermont, Office of Animal Care Management. The hypothalamic block of each rat was dissected from the rat's brain as described and immediately homogenized with RNase-free homogenizer. Total RNA was extracted using an Ultraspec-II RNA kit (Biotecx Laboratories, Inc., Houston, Tex.) following the manufacturer's procedures and stored at −80 degrees C. until analysis.
Differential Display-Reverse Transcription-Polymerase Chain Reaction (DD-RT-P). The RNAimage mRNA Differential Display system was purchased from GenHunter Corporation (Nashville, Tenn.). Three anchored H-T11M (where M refer to G, A, or C) primers and 12 sets of arbitrary primers (HAP 1 to 12) were chosen to use in this particular experiment. […]

With `C=Cc1c(C)c2cc3[nH]c(cc4nc(cc5nc(cc1[nH]2)C(C)=C5CCC(=O)[O-])C(CCC(=O)[O-])=C4C)c(C)c3C=C.[Co+2]` [CoPP, Cobaltic protoporphyrin IX] the “cDNA band 11G2L in differential display” value was “present”.
